pIC50: −log10 of the molar value. Results filed as inconclusive are left out.
Tested on: M. tuberculosis H37Rv growth inhibition, 7H9 media
Experiment: M. tuberculosis growth inhibition, HTS (AID 449762);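 also: bacterial growth assessed after seven days of incubation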
Details: for IC90: measured here: IC90 growth inhibition

SMILES | pIC50 | IC90
CC(C)(C)c1ccc(C(=O)N2CCN(CCNC(=O)C(=O)NCc3ccc(Cl)cc3)CC2)cc1 | 4.64 | 28.3 µM
COc1ccccc1C1CCN(Cc2ccc3ccccc3c2)CC1 | 4.80 | 21.8 µM
CC1CCN(C(=O)c2ccc(-c3ccccc3Cl)o2)CC1 | 4.75 | 65.8 µM
COc1ccc(-c2nsc3c(N4CCCCC4C)ncnc23)cc1 (stereo not given) | 4.39 | 56.8 µM
CN=c1scc(-c2ccccc2Br)n1/N=C/c1ccc[nH]1 | 4.30 | 54.2 µM
CCOC(=O)c1ccc(NC(=O)C(C)Sc2nc(O)c(-c3ccccc3)c(=O)[nH]2)cc1 (stereo not given) | 5.26 | 22.6 µM
CC(=NCc1ccc2c(c1)OCO2)C1=C(O)c2ccccc2C1=O | 5.96 | > 100 µM
COC(=O)N/N=C/c1c[n+]([O-])c2ccccc2[n+]1[O-] | 4.88 | 31.7 µM
COc1cc(NC(=O)c2ccc(COc3ccccc3Br)o2)cc(OC)c1OC | 4.35 | > 100 µM
CC(c1nc2ccccc2c(=O)[nH]1)N(C)CCOc1ccc(Cl)cc1 (stereo not given) | 4.39 | 51.7 µM
CCOC(=O)N1CCN(C(=O)CSc2nnc(-c3ccc(Cl)s3)o2)CC1 | 4.88 | 34.1 µM
Cc1ccc2cc(C)c(N3CCN(c4ccccn4)CC3)nc2c1 | 4.53 | 46.3 µM
CCN(CC)C(=O)Oc1ccc2c(=O)c(-c3ccc(OC)cc3)coc2c1 | 4.55 | > 100 µM
COc1ccc(-c2c(C#N)c(SCC(=O)c3cc4ccccc4oc3=O)nc(C)c2C(=O)Nc2ccccc2)cc1 | 4.34 | 75.6 µM
CC1CCC(C(C)C)C(OC(=O)Cn2c(-c3ccc(F)cc3)[n+](C)c3ccccc32)C1 (stereo not given) | 5.04 | 13 µM
COc1ccc(C(=O)C[n+]2ccc3c(c2)nc(-c2cc(OC)c(OC)cc2OC)n3C)cc1 | 4.98 | 13.4 µM
COc1ccc(C2=NN(C(=O)COC(=O)c3ccc(S(C)(=O)=O)c([N+](=O)[O-])c3)C(c3ccco3)C2)cc1 (stereo not given) | 5.18 | 14.9 µM
Cc1ccc(C(=O)OCc2nnc(-c3ccccc3)o2)s1 | 4.72 | 33.5 µM
C=CCc1cc(C)ccc1OCCCC(C(=O)OCC)C(=O)OCC | 5.01 | 21.4 µM
CC(C)COCc1ccc(O)c2ncccc12 | 5.79 | 2.35 µM
CC(=O)CCSc1ncnc2sc(-c3ccccc3)cc12 |  | > 100 µM
O=C(C[n+]1ccc(C(=O)N/N=C/c2ccc(O)cc2)cc1)c1ccccc1 | 5.35 | > 100 µM

SMILES | pIC50 | IC90
O=[N+]([O-])c1ccc(C2Oc3ccccc3C3CC(c4ccccc4)=NN32)s1 (stereo not given) | 5.21 | 6.95 µM
CCN(CC)S(=O)(=O)c1ccc2[nH]cc(C(=O)NCCC3=CCCCC3)c(=O)c2c1 | 4.39 | > 100 µM
CN1CCN(C2=Cc3ccc(Cl)cc3Sc3ccc(F)cc32)CC1 | 4.64 | 32.9 µM
N#Cc1c([N+](=O)[O-])cc([N+](=O)[O-])cc1S(=O)(=O)Cc1ccccc1 | 4.81 | 22.6 µM
Nc1nc2ccccc2n1CCOc1ccccc1Cl | 4.92 | 13.3 µM
O=c1cc(O)c2sc3nc(-c4cccnc4)cc(C(F)(F)F)c3c2[nH]1 | 4.81 | 35.6 µM
Cc1ccccc1NC(=O)Cc1nc(COC(=O)/C=C/c2ccccc2)cs1 | 4.39 | 63 µM
Cc1nn(Cc2ccccc2)c(C)c1NC(=O)c1cc2nc(-c3ccco3)cc(C(F)(F)F)n2n1 | 4.33 | > 100 µM
O=C(OCC(=O)N1CCN(C(=O)c2ccco2)CC1)c1cc(-c2cccc(Br)c2)nc2ccccc12 | 4.02 | > 100 µM
Cc1nc2ccc(OC(=O)c3ccccc3)cc2s1 | 4.18 | 86 µM
O=C(c1ccc([N+](=O)[O-])s1)N1CCN(c2ccc(C(F)(F)F)cn2)CC1 | > 6.70 | < 0.2 µM
O=c1c2cc(-c3ccccc3)sc2ncn1/N=C/c1ccco1 | 4.08 | > 100 µM
O=C(CCl)NN=C(c1ccccc1)c1ccccc1 | 6.28 | 1.89 µM
O=C(Nc1cccc(-c2ccc(N3CCCCC3)nn2)c1)c1ccc(Br)o1 | 4.78 | 42.4 µM
CCN1CCN(Cc2ccc(NC(=O)c3cc(NC(=O)c4cncc(-c5cccs5)c4)cc(OC)c3)cc2C(F)(F)F)CC1 | 4.99 | 14.6 µM
O=C(O)c1ccccc1C(=O)NNc1ccc(Cl)cc1Cl |  | > 100 µM
Cc1cc(Nc2ccccc2)c2c([N+](=O)[O-])ccc(C)c2n1 | 4.02 | > 100 µM
O=[N+]([O-])c1ncccc1Oc1nc(-c2cccnc2)nc2ccccc12 | > 6.70 | 1.36 µM
CCOC(=O)C1CCN(CC(O)COc2ccc(C(C)(C)CC)cc2)CC1 (stereo not given) | 4.64 | 29.5 µM
CN(C)C/C=C/C(=O)Nc1cccc(-c2c[nH]c3ncnc(Oc4ccc(NC(=O)CC(=O)Nc5ccc(F)cc5)cc4F)c23)c1 | 5.13 | 14.7 µM
O=C(Cc1ccc(Nc2nc3ccc(Br)cc3[nH]2)cc1)NCCc1cccs1 | 4.63 | 31.2 µM
CCOP(=O)(OCC)/C(=C/N1CCCCC1)NC(=O)c1ccccc1 | 4.09 | > 100 µM

SMILES | pIC50 | IC90
Cc1nc([N+](=O)[O-])c(Br)n1CC(=O)c1ccc2ccccc2c1 | 5.67 | 11.9 µM
Clc1cc(Cl)cc(Nc2ncn[nH]2)c1 | 4.62 | > 100 µM
COC(=O)C1C(O)C(C)C(O)C(C)/C=C\C=C(/C)C(=O)Nc2c(C)c(OC(C)=O)c3c(c2O)C(=O)C(C)=C2OCOC(=C23)/C(C)=C/C(C)(O)C(O)C(C)C1O (stereo not given) | > 6.70 | < 0.2 µM
CCOC(=O)c1cc2cc3ccccc3cc2oc1=O | 4.47 | > 100 µM
Cc1cc(C2N=C(N)Nc3nc4ccccc4n32)c(C)n1-c1ccccc1Cl (stereo not given) | 4.92 | 16.6 µM
C/C(=N\Nc1ccc(Cl)c(Cl)c1)c1ccc(-n2ccnc2)cc1 | 4.18 | 86.4 µM
Cc1ccc(C)c(-c2nn(-c3cc(N4CCN(CCO)CC4)ccc3[N+](=O)[O-])c(=O)c3ccccc23)c1 | 4.90 | 28.7 µM
CC(C)(C)C(=O)/C(=C\c1cccc([N+](=O)[O-])c1)n1cncn1 | 5.82 | 1.72 µM
O=C1N=C(N2CCC(Cc3ccccc3)CC2)S/C1=C/c1cn[nH]c1-c1ccccc1 | 4.56 | > 100 µM
Cc1nnc(-c2ccccc2)c(=O)n1/N=C/c1c(O)ccc2ccccc12 | 4.62 | 27.3 µM
Cc1cc(N2CCC(C)CC2)nc(-n2nc(C)cc2C)n1 | > 6.70 | 5.47 µM
O=[N+]([O-])c1cc(Cl)c(O)c(-[n+]2c(-c3ccccc3)cc(-c3ccccc3)cc2-c2ccccc2)c1 | 5.63 | 5.36 µM
O=C(c1cc2cc(Cl)ccc2[nH]1)N1CCN(Cc2ccc3c(c2)OCO3)CC1 |  | > 100 µM
Cc1cc(C)nc(Sc2ncnc(N)c2[N+](=O)[O-])n1 | 5.10 | 20.7 µM
COc1ccc(-c2cc(-c3ccccc3)c(C#N)c(S(C)=O)n2)cc1 (stereo not given) | 4.82 | 29 µM
CCOC(=O)Cn1c(-c2ccccc2)ccc(C#N)c1=O | 5.35 | > 100 µM
CC(C)(C)c1ccc(C(O)CCCN2CCC(C(O)(c3ccccc3)c3ccccc3)CC2)cc1 (stereo not given) | 4.91 | 17.4 µM
CC(C)c1ccc2[nH]c(O)c(N=NC(=O)c3ccc(CSc4nncn4C)cc3)c2c1 |  | > 100 µM
CCOC(=O)C(/C=C(\C#N)C(=O)OCC)=C(/N)N1CCN(c2ccc(Cl)cc2)CC1 | 4.73 | > 100 µM
CC(=O)c1ccc(N2CCC(c3cc(-c4ccc(Cl)cc4Cl)n[nH]3)CC2)c([N+](=O)[O-])c1 | 4.74 | 26.1 µM
Cc1ccc2nc(N/N=C/c3ccccc3C#N)nc(-c3ccccc3)c2c1 | 4.09 | > 100 µM
CC(C)(C)C1CCc2sc(-c3nnc(CCl)o3)cc2C1 (stereo not given) | > 6.70 | 5.54 µM

SMILES | pIC50 | IC90
COc1ccc2nc(NC(=O)C3CCCN(S(=O)(=O)c4cccs4)C3)sc2c1 (stereo not given) | 4.74 | 27.6 µM
CCOC(=O)CSc1snnc1-c1ccccc1 | 4.86 | 59.6 µM
CC1CC(C)(C)Nc2ccc(OC(=O)c3ccco3)cc21 (stereo not given) | 5.20 | 16.4 µM
CN(CC(=O)Nc1ccccc1Br)C(=O)c1cccnc1Nc1cccc(C(F)(F)F)c1 | 4.49 | 40.7 µM
COc1cc2nc(N3CCN(c4cc(C)ccc4C)CC3)nc(N)c2cc1OC | 4.86 | 15.8 µM
Cc1sc2ncnc(Oc3ccc(-n4ccnc4)cc3)c2c1C | 4.48 | 55.5 µM
CNC(C)C#Cc1ccc2oc3cc(C)c(C)cc3c(=O)c2c1 (stereo not given) | 5.34 | 17.9 µM
C/C(=N/Nc1cc(-c2ccccc2)nc(-c2ccccc2)n1)c1ccc(O)cc1 | 5.02 | 13.8 µM
CCOC(=O)C(C)Oc1ccc(OCc2ccccc2)cc1 (stereo not given) | 5.38 | 10.9 µM
O=C(CCl)Nc1cccn2ncnc12 | 5.86 | 2.89 µM
O=[N+]([O-])c1ccc(N2CCCCC2)s1 | 5.12 | 17.9 µM
CC1(C)CC(NC(=O)c2ccc(Cl)c(S(=O)(=O)N(Cc3ccccc3)c3ccccc3)c2)CC(C)(C)N1 | 4.61 | 27.9 µM
CNc1ccc2nc3ccccc3[n+](C)c2c1 | 5.89 | 2.34 µM
CC(C)(O)[C@H]1O[C@H]2CC[C@@]3(C)[C@@](O)(CC[C@H]4Cc5c([nH]c6ccccc56)[C@@]43C)C2=CC1=O | 4.38 | 63.9 µM
O=c1cc(/C=C/c2ccccc2)oc2ccccc12 | 4.44 | > 100 µM
CCCNC1=C(N(C(C)=O)c2cccc(F)c2)C(=O)c2ccccc2C1=O | 4.94 | 20.1 µM
CN(C)c1ccc(/C=C2\N=C(C(C)(C)C)OC2=O)cc1 | 4.84 | 34.5 µM
S=C(NCCc1ccccc1)NN=C1CCCCCC1 | 4.64 | 26.6 µM
CCc1ccc(/C=C2/C(=O)N(C)C(=S)N2CC(=O)OC)s1 | 5.84 | 5.75 µM
Cc1cc(-c2ccc(Cl)cc2)c2cnn(C(C)C)c2n1 | 4.59 | 44.1 µM
O=C1c2ccccc2-c2onc3ccc(Oc4ccccc4)c1c23 | 5.25 | 10.9 µM

Source: PubChem BioAssay AID449762 (Southern Research Specialized Biocontainment Screening …, 2010)
